Measurements taken from patent US20250346621A1, “ASCAROSIDE SALTS” (Ascribe Bioscience Inc., priority 2022, published 2025).

System: Bipolaris sorokiniana
Experiment: greenhouse-based plant pathogen assay: protection of wheat plants from Bipolaris sorokiniana damage
Format: in vivo
Details: two-week-old wheat plants sprayed with 1 μM, inoculated 24 h after treatment, symptoms quantified ten days after inoculation; compared with un-modified ascr #18; *P≤0.04
Method: The efficacy of the zinc salt of ascr #18 was compared to free ascr #18 in a greenhouse-based plant pathogen assay. Two-week-old wheat plants were sprayed with a solution containing 1 μM ascr #18, or 1 μM of the zinc salt (ascr #18)2Zn. 24 h after treatment, the plants were inoculated with spores of Bipolaris sorokiniana (causal agent of root rot and brown spot blotch). Disease symptoms were quantified ten days after inoculation by measuring the symptomatic area on the leaves.

## CC(CCCCCCCCC(=O)[O-])OC1OC(C)C(O)CC1O.CC(CCCCCCCCC(=O)[O-])OC1OC(C)C(O)CC1O.[Zn+2] (stereo not shown) [(ascr #18)2Zn]
  protection against pathogen damage (symptomatic area on the leaves): better protection against pathogen damage than un-modified ascr #18
